# Assay results as given in patent US4880791A, “Combination product composed of xanthine derivatives and O-acetylsalicylic acid or its pharmacologically tolerated salts, and its use” (priority 1984, dated 1989).
# Experiments:
# [1] = test system: laser-induced thrombosis in the arterioles and venules of the rat mesentery; assay: laser-induced thrombosis in arterioles of the rat mesentery; assay type: in vivo, rat (female Sprague-Dawley); settings: for Changes from controls, % / Changes from controls, absolute / Number of shots: single substance
# Experimental: The evaluation was carried out by analysis by vital microscopy (Nature, 218 (1968) 887 and Haemostasis 13 (1983) 61 and IRCS Med. Sci. 12 (1984) 91).
# The test substances were administered in 0.9% sodium chloride solution (which contained 1% carboxymethylcellulose (Serva, Heidelberg)) either orally, intraperitoneally or intravenously. Control animals were treated in the corresponding manner but without the test substances. The experimental animals used were male or female Sprague-Dawley or Wistar rats.
# The animals which were to be investigated underwent s.c. premedication with 0.1 mg of atropine sulfate in solution and were anesthetized with 100 mg of ketamine hydrochloride and 4 mg of xylazine per kg of body weight i.p. The investigation made use of arterioles and venules of the mesentery, which was coated with degassed liquid paraffin, having a diameter of about 13 μm. The beam of a 4 W argon laser (supplied by Spectra Physics, Darmstadt) was introduced coaxially, by means of a beam adaptation and adjustment system (supplied by BTG, Munich), into the inverted optical path of a microscope (ICM 405, LD-Epipland 40/0.60; supplied by Zeiss, Oberkochen). The wavelength used was 514.5 nm, with an energy above the objective of 30.5 mW. The exposure time per single shot was 1/15 sec. All the measuring operations were recorded by video camera (Trinicon tube, Sony, Cologne) and stored in a recorder (Sony, U-matic 3/4"). The test substances were administered in various doses to the experimental animals, orally one hour, and on i.v. administration 10 min., before the start of the experiment, control animals receiving the same amount of placebo.
# The number of shots needed to induce a defined thrombus is counted.
# The results of the experiment were subjected to statistical analysis using the .chi.^2 test (L. Cavalli-Sforza, Biometrie (Biostatistics), Stuttgart, 1969, pages 49 et seq.). […]
# [2] = test system: mucosa of the glandular stomach; assay: test of gastric tolerance (ulcerogenic effect); assay type: in vivo, rat (male Sprague-Dawley); settings: for Number of animals with ulcers: 10 animals
# Experimental: 24 hours after the last medication, the stomach was cut open along the lesser curvature, cleaned under running water, and inspected for mucosal lesions. All lesions visible on macroscopic inspection of the mucosa of the glandular stomach were regarded as ulcers.
# [3] = test system: erythrocyte filterability; assay: erythrocyte filterability in adjuvant arthritis rats; assay type: in vivo, rat; settings: oral 21 days
# Experimental: (§1) The hemorheological, antithrombotic, antiaggregatory and antiinflammatory effects of the combinations according to the invention were investigated after oral administration for 21 days in the pathological model of adjuvant arthritis (induced with Mycobacterium butyricum) is the rat by the method of Clincal Hemorheology 3 (1983) 469-480, and were compared with those of the appropriate individual substances. Blood was taken from the thoracic aorta 1 hour after the last administration of substance. All the details of the determination of the hemorheological effect were as described in Clinical Hemorheology 4 (1984) 263-273. The erythocyte deformability was quantitatively determined in a filtrometer (Myrenne MF 4, Roetgen, Germany) by evaluation of the initial gradient of the flow curve.
# [4] = test system: tendency to thrombosis in arthritic rat; assay: laser-induced tendency to thrombosis in arthritic rats; assay type: in vivo; settings: oral 21 days
# Experimental: as §1
# The antithrombotic effect was measured using the laser model as described above.
# [5] = test system: induced platelet aggregation; assay: collagen-induced platelet aggregation in arthritic rats; assay type: in vivo, rat; settings: oral 21 days
# Experimental: as §1
# The measurements of platelet aggregation were carried out as described above in detail. However, instead of arachidonic acid 0.04 mg of collagen was used to induce platelet aggregation in 1 ml of platelet-rich plasma (PA II aggregometer from Myrenne, Roetgen).
# [6] = test system: adjuvant arthritis (Mycobacterium butyricum) in the rat; assay: antiinflammatory effect in adjuvant arthritis (paw edema, necrosis index); assay type: in vivo
# Experimental: as §1
# The antiflammatory effect was quantitatively measured, as quoted above, using the volume of the edema of the paw and using the standard necrosis index.
# rat aortas = settings: treatment of the rats with acetylsalicylic acid; cited from earlier work
# human blood platelets = settings: cited from earlier work
# cyclooxygenase = settings: cited from earlier work
# vascular cyclooxygenase = settings: cited from earlier work
# [7] = customary doses; cited from earlier work
# [8] = Table 1b, 1 mg/kg acetylsalicylic acid without pentoxifylline
smiles,measurement,setting,value
"CC(=O)Oc1ccccc1C(=O)O [Acetylsalicylic acid, O-acetylsalicylic acid]","Changes from controls, %",[1]; 1 mg/kg oral,-13%
same,"Changes from controls, absolute",[1]; 1 mg/kg oral,"-0,35"
same,Number of shots,[1]; 1 mg/kg oral,"1,88"
same,"Changes from controls, %",[1]; 5 mg/kg oral,-18%
same,"Changes from controls, absolute",[1]; 5 mg/kg oral,"-0,38"
same,Number of shots,[1]; 5 mg/kg oral,"1,79"
same,"Changes from controls, %",[1]; 10 mg/kg oral,35%
same,"Changes from controls, absolute",[1]; 10 mg/kg oral,"0,75"
same,Number of shots,[1]; 10 mg/kg oral,"2,92"
same,"Changes from controls, %",[1]; 30 mg/kg oral,48%
same,"Changes from controls, absolute",[1]; 30 mg/kg oral,"1,04"
same,Number of shots,[1]; 30 mg/kg oral,"3,21"
same,% change from controls,[1]; [8],-13%
same,-x (number of shots),[1]; [8],"1,90"
same,effect in laser-induced thrombosis,[1]; oral dose 10 mg/kg,significant effect
same,effect in laser-induced thrombosis,[1]; single oral dose 5 mg/kg,not significant
same,Number of animals with ulcers,[2]; acetylsalicylic acid 25 mg/kg oral,5
same,Number of animals with ulcers,[2]; acetylsalicylic acid 50 mg/kg oral,7
same,Number of animals with ulcers,[2]; acetylsalicylic acid 100 mg/kg oral,9
same,Number of animals with ulcers,"[2]; acetylsalicylic acid 1,25 mg/kg oral",1
same,Number of animals with ulcers,"[2]; acetylsalicylic acid 12,50 mg/kg oral",2
same,gastric ulcerogenicity,[2]; acetylsalicylic acid after pretreatment with pentoxifylline,unaffected by pretreatment with pentoxifylline
same,erythrocyte filterability,"[3]; 10 mg, healthy = 100%, untreated arthritic 59%",63%
same,erythrocyte filterability,[3]; 180 mg,68%
same,erythrocyte filterability in arthritic rats (in words),[3],can be increased again
same,tendency to thrombosis (number of shots),"[4]; 10 mg, healthy = 100%, untreated arthritic 46%",47%
same,tendency to thrombosis (number of shots),[4]; 180 mg,91%
same,induced platelet aggregation,"[5]; 10 mg, untreated arthritic = 100%, healthy 0%",62%
same,induced platelet aggregation,[5]; 180 mg,35%
same,"Percentage improvement, necrosis index",[6]; 10 mg,8%
same,"Percentage improvement, volume of paw edema, left paw",[6]; 10 mg,2%
same,"Percentage improvement, volume of paw edema, right paw",[6]; 10 mg,3%
same,"Percentage improvement, necrosis index",[6]; 180 mg,28%
same,"Percentage improvement, volume of paw edema, left paw",[6]; 180 mg,28%
same,"Percentage improvement, volume of paw edema, right paw",[6]; 180 mg,26%
same,release of the substance having antiaggregatory activity stimulated by pentoxifylline,rat aortas,can be suppressed
same,aggregation of human blood platelets,human blood platelets,inhibitor of the aggregation
same,cyclooxygenase localized in the blood platelets,cyclooxygenase,inhibits the enzyme cyclooxygenase
same,inhibition of vascular cyclooxygenase,vascular cyclooxygenase,found only at higher doses
same,undesired side effects,[7],"asthma, allergic urticaria, analgesic nephropathy and peptic ulcers"
